Test results taken from ChEMBL document CHEMBL2401728, “An unexpected Dimroth rearrangement leading to annelated thieno[3,2-d][1,2,3]triazolo[1,5-a]pyrimidines with potent antitumor activity” (Eur J Med Chem, 2013).

Assays:
Type in all cases: functional
MDA-MB-231 [1] = experiment: Cytotoxicity against human MDA-MB-231 cells assessed as cellular growth at 10 uM after 48 hrs by SRB assay relative to control
K562 [2] = experiment: Cytotoxicity against human K562 cells assessed as cellular growth at 10 uM after 48 hrs by SRB assay relative to control
DU-145 = experiment: Cytotoxicity against human DU145 cells assessed as cellular growth at 10 uM after 48 hrs by SRB assay relative to control
HCT-15 [3] = experiment: Cytotoxicity against human HCT15 cells assessed as cellular growth at 10 uM after 48 hrs by SRB assay relative to control
SNB-19 [4] = experiment: Cytotoxicity against human SNB19 cells assessed as cellular growth at 10 uM after 48 hrs by SRB assay relative to control
Malme-3M = experiment: Cytotoxicity against human MALME-3M cells assessed as cellular growth at 10 uM after 48 hrs by SRB assay relative to control
LOX IMVI = experiment: Cytotoxicity against human LOXIMVI cells assessed as cellular growth at 0.1 uM after 48 hrs by SRB assay relative to control
[5] = Cytotoxicity against human NCI-ADR-RES cells assessed as cellular growth at 100 uM after 48 hrs by SRB assay relative to control
TK-10 [6] = experiment: Cytotoxicity against human TK10 cells after 48 hrs by SRB assay; conditions: TK-10, 48 h
A549 [7] = experiment: Cytotoxicity against human A549 cells assessed as cellular growth at 100 uM after 48 hrs by SRB assay relative to control
[8] = Cytotoxicity against human NCI-ADR-RES cells assessed as cellular growth at 1 uM after 48 hrs by SRB assay relative to control
UACC-257 [9] = experiment: Cytotoxicity against human UACC257 cells after 48 hrs by SRB assay; conditions: UACC-257, 48 h
HCT-116 = experiment: Cytotoxicity against human HCT116 cells assessed as cellular growth at 1 uM after 48 hrs by SRB assay relative to control
A498 [10] = experiment: Cytotoxicity against human A498 cells assessed as cellular growth at 100 uM after 48 hrs by SRB assay relative to control
UACC-257 [11] = experiment: Cytotoxicity against human UACC257 cells assessed as cellular growth at 0.1 uM after 48 hrs by SRB assay relative to control
SW-620 = experiment: Cytotoxicity against human SW620 cells assessed as cellular growth at 0.01 uM after 48 hrs by SRB assay relative to control
TK-10 [12] = experiment: Cytotoxicity against human TK10 cells assessed as cellular growth at 0.01 uM after 48 hrs by SRB assay relative to control
BT-549 = experiment: Cytotoxicity against human BT549 cells assessed as cellular growth at 0.01 uM after 48 hrs by SRB assay relative to control
OVCAR-3 = experiment: Cytotoxicity against human OVCAR3 cells assessed as cellular growth at 0.1 uM after 48 hrs by SRB assay relative to control
NCI-H23 = experiment: Cytotoxicity against human NCI-H23 cells assessed as cellular growth at 1 uM after 48 hrs by SRB assay relative to control
OVCAR-5 [13] = experiment: Cytotoxicity against human OVCAR5 cells assessed as cellular growth at 1 uM after 48 hrs by SRB assay relative to control
Hs-578T [14] = experiment: Cytotoxicity against human Hs578T cells assessed as cellular growth at 0.1 uM after 48 hrs by SRB assay relative to control
MDA-MB-231 [15] = experiment: Cytotoxicity against human MDA-MB-231 cells assessed as cellular growth at 0.1 uM after 48 hrs by SRB assay relative to control
OVCAR-5 [16] = experiment: Cytotoxicity against human OVCAR5 cells assessed as cellular growth at 100 uM after 48 hrs by SRB assay relative to control
HOP-62 = experiment: Cytotoxicity against human HOP62 cells assessed as cellular growth at 1 uM after 48 hrs by SRB assay relative to control
OVCAR-5 [17] = experiment: Cytotoxicity against human OVCAR5 cells assessed as cellular growth at 0.01 uM after 48 hrs by SRB assay relative to control
T47D = experiment: Cytotoxicity against human T47D cells after 48 hrs by SRB assay
Hs-578T [18] = experiment: Cytotoxicity against human Hs578T cells after 48 hrs by SRB assay
TK-10 [19] = experiment: Cytotoxicity against human TK10 cells assessed as cellular growth at 0.1 uM after 48 hrs by SRB assay relative to control
SF-268 [20] = experiment: Cytotoxicity against human SF268 cells assessed as cellular growth at 0.01 uM after 48 hrs by SRB assay relative to control
COLO 205 = experiment: Cytotoxicity against human COLO205 cells assessed as cellular growth at 0.01 uM after 48 hrs by SRB assay relative to control
K562 [21] = experiment: Cytotoxicity against human K562 cells assessed as cellular growth at 0.01 uM after 48 hrs by SRB assay relative to control
U-251 = experiment: Cytotoxicity against human U251 cells assessed as cellular growth at 0.01 uM after 48 hrs by SRB assay relative to control
OVCAR-4 = experiment: Cytotoxicity against human OVCAR4 cells after 48 hrs by SRB assay; conditions: OVCAR-4, 48 h
A498 [22] = experiment: Cytotoxicity against human A498 cells assessed as cellular growth at 1 uM after 48 hrs by SRB assay relative to control
A549 [23] = experiment: Cytotoxicity against human A549 cells assessed as cellular growth at 0.1 uM after 48 hrs by SRB assay relative to control
SNB-19 [24] = experiment: Cytotoxicity against human SNB19 cells assessed as cellular growth at 0.01 uM after 48 hrs by SRB assay relative to control
SF-268 [25] = experiment: Cytotoxicity against human SF268 cells assessed as cellular growth at 1 uM after 48 hrs by SRB assay relative to control
HCT-15 [26] = experiment: Cytotoxicity against human HCT15 cells assessed as cellular growth at 100 uM after 48 hrs by SRB assay relative to control
[27] = read-out: LC50 (the source's name)
[28] = read-out: pLC50 (the source's name) (converted)

Structure (SMILES): O=C(O)CCCn1c2c(sc3ccccc32)c(=O)n2nnc(-c3ccccc3)c12
- Activity (MDA-MB-231 [1]): 92.52%
- Activity (K562 [2]): 96.49%
- Activity (DU-145): 94.87%
- Activity (HCT-15 [3]): 66.61%
- Activity (SNB-19 [4]): 76.27%
- Activity (Malme-3M): 106.11%

Structure (SMILES): O=C(CCCn1c2c(sc3ccccc32)c(=O)n2nnc(-c3ccccc3)c12)NCCc1c[nH]cn1
- Activity (LOX IMVI): 89%
- Activity [5]: 32%
- GI50 (TK-10 [6]; read-out: GI50): 2.17 µM
- CC50 (TK-10 [6]; [27]): 6.42 µM
- TGI (TK-10 [6]; read-out: TGI): 3.73 µM
- GI50 (TK-10 [6]; read-out: pGI50 (converted)): 2.19 µM
- CC50 (TK-10 [6]; [28]): 6.46 µM
- TGI (TK-10 [6]; read-out: pTGI (converted)): 3.72 µM
- Activity (A549 [7]): -2%
- Activity [8]: 51%
- Activity (MDA-MB-231 [1]): -64%
- GI50 (UACC-257 [9]; read-out: GI50): 2.14 µM
- CC50 (UACC-257 [9]; [27]): 7.83 µM
- TGI (UACC-257 [9]; read-out: TGI): 4.09 µM
- GI50 (UACC-257 [9]; read-out: pGI50 (converted)): 2.14 µM
- CC50 (UACC-257 [9]; [28]): 7.76 µM
- TGI (UACC-257 [9]; read-out: pTGI (converted)): 4.07 µM
- Activity (HCT-116): -27%
- Activity (A498 [10]): -97%
- Activity (K562 [2]): -70%
- Activity (UACC-257 [11]): 108%
- Activity (SW-620): 63%
- Activity (TK-10 [12]): 96%
- Activity (BT-549): 100%
- Activity (OVCAR-3): 107%
- Activity (DU-145): -100%
- Activity (NCI-H23): 65%
- Activity (OVCAR-5 [13]): 14%
- Activity (Hs-578T [14]): 91%
- Activity (MDA-MB-231 [15]): 109%
- Activity (OVCAR-5 [16]): -80%
- Activity (HOP-62): 67%
- Activity (OVCAR-5 [17]): 94%
- GI50 (T47D; read-out: GI50): 1.27 µM
- CC50 (T47D; [27]): 30.6 µM
- TGI (T47D; read-out: TGI): 6.37 µM
- GI50 (T47D; read-out: pGI50 (converted)): 1.26 µM
- CC50 (T47D; [28]): 30.9 µM
- TGI (T47D; read-out: pTGI (converted)): 6.31 µM
- Activity (HCT-15 [3]): -75%
- Activity (SNB-19 [4]): 27.29%
- GI50 (Hs-578T [18]; read-out: GI50): 1.47 µM
- TGI (Hs-578T [18]; read-out: TGI): 3.82 µM
- GI50 (Hs-578T [18]; read-out: pGI50 (converted)): 1.48 µM
- TGI (Hs-578T [18]; read-out: pTGI (converted)): 3.8 µM
- Activity (TK-10 [19]): 93%
- Activity (SF-268 [20]): 105%
- Activity (COLO 205): 87%
- Activity (K562 [21]): 65%
- Activity (U-251): 78%
- GI50 (OVCAR-4; read-out: GI50): 1.83 µM
- CC50 (OVCAR-4; [27]): 8.02 µM
- TGI (OVCAR-4; read-out: TGI): 3.83 µM
- GI50 (OVCAR-4; read-out: pGI50 (converted)): 1.82 µM
- CC50 (OVCAR-4; [28]): 7.94 µM
- TGI (OVCAR-4; read-out: pTGI (converted)): 3.8 µM
- Activity (A498 [22]): 55%
- Activity (A549 [23]): 99%
- Activity (SNB-19 [24]): 94%
- Activity (SF-268 [25]): 79%
- Activity (HCT-15 [26]): -100%
- Activity (Malme-3M): -76.11%

Structure (SMILES): CN1CCN(CCCn2c3c(sc4ncccc43)c(=O)n3nnc(-c4ccccc4)c23)CC1
- Activity (LOX IMVI): 88%
- Activity [5]: -62%
- GI50 (TK-10 [6]; read-out: GI50): 2.15 µM
- TGI (TK-10 [6]; read-out: TGI): 3.75 µM
- GI50 (TK-10 [6]; read-out: pGI50 (converted)): 2.14 µM
- TGI (TK-10 [6]; read-out: pTGI (converted)): 3.72 µM
- Activity (A549 [7]): -42%
- Activity [8]: 92%
- Activity (MDA-MB-231 [1]): -83.53%
- GI50 (UACC-257 [9]; read-out: GI50): 1.81 µM
- CC50 (UACC-257 [9]; [27]): 6.3 µM
- TGI (UACC-257 [9]; read-out: TGI): 3.37 µM
- GI50 (UACC-257 [9]; read-out: pGI50 (converted)): 1.82 µM
- CC50 (UACC-257 [9]; [28]): 6.31 µM
- TGI (UACC-257 [9]; read-out: pTGI (converted)): 3.39 µM
- Activity (HCT-116): 88%
- Activity (A498 [10]): -92%
- Activity (K562 [2]): -41%
- Activity (UACC-257 [11]): 99%
- Activity (SW-620): 96%
- Activity (TK-10 [12]): 105%
- Activity (BT-549): 99%
- Activity (OVCAR-3): 95%
- Activity (DU-145): -74%
- Activity (NCI-H23): 94%
- Activity (OVCAR-5 [13]): 99%
- Activity (Hs-578T [14]): 93%
- Activity (MDA-MB-231 [15]): 100%
- Activity (OVCAR-5 [16]): -44%
- Activity (HOP-62): 97%
- Activity (OVCAR-5 [17]): 105%
- GI50 (T47D; read-out: GI50): 19.7 µM
- CC50 (T47D; [27]): 71.6 µM
- TGI (T47D; read-out: TGI): 37.6 µM
- GI50 (T47D; read-out: pGI50 (converted)): 20 µM
- CC50 (T47D; [28]): 70.8 µM
- TGI (T47D; read-out: pTGI (converted)): 38 µM
- Activity (HCT-15 [3]): -63%
- Activity (SNB-19 [4]): -63%
- GI50 (Hs-578T [18]; read-out: GI50): 14.9 µM
- CC50 (Hs-578T [18]; [27]): > 100 µM
- TGI (Hs-578T [18]; read-out: TGI): 41.7 µM
- GI50 (Hs-578T [18]; read-out: pGI50 (converted)): 14.8 µM
- CC50 (Hs-578T [18]; read-out: pLC50 (converted)): > 100 µM
- TGI (Hs-578T [18]; read-out: pTGI (converted)): 41.7 µM
- Activity (TK-10 [19]): 99%
- Activity (SF-268 [20]): 96%
- Activity (COLO 205): 95%
- Activity (K562 [21]): 95%
- Activity (U-251): 97%
- GI50 (OVCAR-4; read-out: GI50): 1.87 µM
- CC50 (OVCAR-4; [27]): 8.04 µM
- TGI (OVCAR-4; read-out: TGI): 3.88 µM
- GI50 (OVCAR-4; read-out: pGI50 (converted)): 1.86 µM
- CC50 (OVCAR-4; [28]): 8.13 µM
- TGI (OVCAR-4; read-out: pTGI (converted)): 3.89 µM
- Activity (A498 [22]): 76%
- Activity (A549 [23]): 95%
- Activity (SNB-19 [24]): 101%
- Activity (SF-268 [25]): 83%
- Activity (HCT-15 [26]): -69%
- Activity (Malme-3M): -82%
